Assay results: EP4729058A1, “AGENT FOR PROMOTING ENERGY CONSUMPTION” (Otsuka Pharmaceutical Factory, Inc., priority 2023, dated 2024)

Key:
Type in all cases: in vivo, Mouse, C57BL/6J, male
[1] = Total cholesterol in plasma at necropsy; settings: 720 mg/10mL/kg oral twice a day for 12 weeks, ultra high fat diet, n=10, p < 0.01 vs CON
Excerpt: (§1) Animals after arrival were fed ad libitum a solid diet of ultra high fat diet (D12492). After an acclimatization period, the animals were divided into groups according to the body weight. Then, the animals were individually housed and fed ad libitum the ultra high fat diet. The test substance was orally administered to all groups twice daily (once in the morning and once in the afternoon) (CON group: 0.5% CMC was orally administered; compound A administered group: compound A was orally administered). The day of the first administration was regarded as day 0 from the start of the test. Here, 5 animals from each group were regarded as the first-half animals, and the rest were regarded as the second-half animals, and feeding and administration for the second-half animals were started on day 2 from the start of the test of the first-half animals (day 0 from the start of the test of the second-half animals). […] Oral administration was carried out in the morning (11:00) and afternoon (15:30) of the same day, and after oral administration in the morning (8:30) of the next day, exhaled gas was measured until necropsy. […]

Body weight measurement = settings: for Body weight: ultra high fat diet, n=10
Method: Measurements were carried out at the time of arrival and every week from the day of grouping until the time of necropsy. Measurements were also carried out on the day of measuring the body composition and immediately before necropsy.
(§2) Animals after arrival were fed ad libitum a solid diet of ultra high fat diet (D12492). After an acclimatization period, the animals were divided into groups according to the body weight. Then, the animals were individually housed and fed ad libitum the ultra high fat diet. The test substance was orally administered to all groups twice daily (once in the morning and once in the afternoon) (CON group: 0.5% CMC was orally administered; compound A administered group: compound A was orally administered). The day of the first administration was regarded as day 0 from the start of the test. Here, 5 animals from each group were regarded as the first-half animals, and the rest were regarded as the second-half animals, and feeding and administration for the second-half animals were started on day 2 from the start of the test of the first-half animals (day 0 from the start of the test of the second-half animals). In order for the animals to be acclimated to the environment inside an exhaled gas measurement chamber, the animals after oral administration in the morning (9:00) at days 7, 21, and 49 days from the start of the test were individually accommodated in the exhaled gas measurement chamber for 5.5 hours (10:00-15:30) with free access to water under fasting conditions. On days 28 and 65, after oral administration in the morning (11:00), all applicable animals were promptly accommodated individually in the exhaled gas measurement chamber, and acclimated for about 24 hours with free access to water and food. Oral administration was carried out in the afternoon of the same day (15:30) and in the morning of the next day (8:30), and the animals after administration were promptly accommodated in the exhaled gas measurement chamber again. After acclimation, the animals were returned to the cages for housing them. On day 82, all applicable animals were promptly accommodated in the exhaled gas measurement chamber (10:00) before oral administration in the morning. Oral administration was carried out in the morning (11:00) and afternoon (15:30) of the same day, and after oral administration in the morning (8:30) of the next day, exhaled gas was measured until necropsy. The animals were subjected to necropsy in the afternoon on day 83 (13:00). At the time of necropsy, laparotomy was performed under isoflurane anesthesia, and blood was collected from the caudal vena cava. After blood collection, the animals were euthanized by bleeding from the site of blood collection, and organs (fat, skeletal muscle) were collected.

[2] = Body composition (body composition analyzer, Echo MRI-700); settings: 720 mg/10mL/kg oral twice a day, ultra high fat diet, n=10
Method: The body fat mass and the lean body mass were measured with a body composition analyzer (Echo MRI-700, Hitachi, Ltd.) at 6, 9, and 12 weeks of the test food intake, and divided by the body weight to calculate body fat percentage and lean body mass percentage.
as §2

[3] = Rectal temperature before necropsy; settings: before necropsy (day 83); 720 mg/10mL/kg oral twice a day for 12 weeks, ultra high fat diet; n=10; p < 0.01 vs CON
Excerpt: Before necropsy, a temperature controller for small animals (NS-TC10 Temperature Controller, Neuroscience, Inc.) equipped with a probe for measuring the rectal temperature was inserted into the rectum to measure the rectal temperature.
as §1

[4] = White fat tissue weight at necropsy; settings: white fat weight per body weight at necropsy, 720 mg/10mL/kg oral twice a day for 12 weeks, ultra high fat diet, n=10
Excerpt: as §2
At the time of necropsy, fat around the left and right epididymides was taken out, and then the epididymides were discarded. […]

[5] = Skeletal muscle weight at necropsy; settings: 720 mg/10mL/kg oral twice a day for 12 weeks, ultra high fat diet, n=10, p<0.05 vs CON
Excerpt: as §2, with “collected. […]” for “collected.”

[6] = Analysis of exhaled gas (energy metabolism measurement system for small animals); settings: over 24 hours after morning administration on day 82, 720 mg/10mL/kg oral twice a day, ultra high fat diet, n=10
Method: A 32-channel energy metabolism measurement system for small animals (ARCO-2000-RAT, Arco System Inc.) was used to measure exhaled gas. Oxygen consumption (mL/min) and Carbon dioxide production (mL/min) of the animals were measured every 10 minutes at an air flow rate of 0.3 L/min. Measurements were carried out for about 24 hours after the completion of oral administration in the morning of the day before necropsy, and total oxygen consumption (mL/kg/day), energy consumption (kcal/kg/day), and lipid burning (mg/kg/day) over 24 hours were calculated using the following formulae: Calculation formulae: [formula] [formula] [formula] (VO2: oxygen consumption, VCO2: carbon dioxide production)
as §2, with “On day 82, all applicable animals were promptly accommodated in the exhaled gas measurement chamber (10:00) before oral administration in the morning.” left out, “The animals were subjected to necropsy in the afternoon on day 83 (13:00). At the time of necropsy, laparotomy was performed under isoflurane anesthesia, and blood was collected from the caudal vena cava. After blood collection, the animals were euthanized by bleeding from the site of blood collection, and organs (fat, skeletal muscle) were collected.” left out

[7] = muscle weight per body weight at necropsy, left and right together
[8] = calculated from VO2 and VCO2, p < 0.01 vs CON

O=C(O)CC(C(=O)O)N1C(=O)CC(O)(CC(=O)O)C1=O (racemic) [Compound A]
Total cholesterol [1]: 149.4 mg/dL | Body weight (Body weight measurement; 1 week, 720 mg/10mL/kg oral twice a day): 24.9 g | Body weight (Body weight measurement; 2 weeks, 720 mg/10mL/kg oral twice a day): 25.1 g | Body weight (Body weight measurement; 3 weeks, 720 mg/10mL/kg oral twice a day): 25.3 g | Body weight (Body weight measurement; 4 weeks, 720 mg/10mL/kg oral twice a day): 25.4 g | Body weight (Body weight measurement; 5 weeks, 720 mg/10mL/kg oral twice a day): 25.8 g | Body weight (Body weight measurement; 6 weeks, 720 mg/10mL/kg oral twice a day): 26.4 g | Body weight (Body weight measurement; 7 weeks, 720 mg/10mL/kg oral twice a day, p=0.087 vs CON): 26.8 g | Body weight (Body weight measurement; 8 weeks, 720 mg/10mL/kg oral twice a day, p=0.082 vs CON): 27.3 g | Body weight (Body weight measurement; 9 weeks, 720 mg/10mL/kg oral twice a day, p=0.068 vs CON): 27.8 g | Body weight (Body weight measurement; 10 weeks, 720 mg/10mL/kg oral twice a day, p < 0.05 vs CON): 27.2 g | Body weight (Body weight measurement; 11 weeks, 720 mg/10mL/kg oral twice a day, p < 0.05 vs CON): 28.3 g | Body weight (Body weight measurement; 12 weeks, 720 mg/10mL/kg oral twice a day, p < 0.05 vs CON): 28.9 g | Body weight (Body weight measurement; Before administration (baseline)): 25.1 g | body weight gain relative to the body weight gain of the CON group being 100% (Body weight measurement; after 12 weeks of administration, (3.8 / 7.2) × 100): 52.8% | mean body weight gain (Body weight measurement; after 12 weeks of administration, CON group 7.2 g): 3.8 g | Lean body mass percentage ([2]; 6 weeks, p=0.057 vs CON): 79.6% | Body fat percentage ([2]; 6 weeks, p=0.092 vs CON): 15.6% | Body fat percentage ([2]; 9 weeks, p < 0.05 vs CON): 17.7% | Lean body mass percentage ([2]; 9 weeks, p < 0.05 vs CON): 77.3% | Body fat percentage ([2]; 12 weeks, p < 0.01 vs CON): 19.0% | Lean body mass percentage ([2]; 12 weeks, p < 0.01 vs CON): 74.7% | Rectal temperature [3]: 35.7 °C | Epididymal fat ([4]; p < 0.01 vs CON): 32.18 g/Kg body weight | Perirenal fat ([4]; p < 0.01 vs CON): 12.12 g/Kg body weight | Interscapular fat ([4]; p<0.05 vs CON): 1.88 g/Kg body weight | Mesenteric fat ([4]; p<0.05 vs CON): 10.10 g/Kg body weight | Anterior tibialis muscle [5, 7]: 3.53 g/Kg body weight | Extensor digitorum longus muscle [5, 7]: 0.84 g/Kg body weight | Plantaris muscle [5, 7]: 1.31 g/Kg body weight | Muscles (Total weight of 3 types of muscle) ([5]; plantaris, anterior tibial and extensor digitorum longus muscle, per body weight at necropsy): 5.68 g/Kg body weight | total carbon dioxide production [6]: 28.277 mL/min/kg | total oxygen consumption ([6]; p < 0.01 vs CON): 35.682 mL/min/kg | total energy consumption [6, 8]: 243 kcal/kg/day | total lipid burning [6, 8]: 17768 mg/kg/day
